# Test results: patent publication US20090118331A1, “Use of Lobeline Epimers in the Treatment of Central Nervous System Diseases, Pathologies, and Drug Abuse” (priority 2007, published 2009)
# Columns and labels:
# [1] = Lobeline epimerization in pH 7.4 phosphate buffer control; conditions: after 2 hours, with impurity
# Description: In order to determine the tendency of lobeline to undergo epimerization in the HEPES buffer employed in the 25° C. [^3H]DTBZ binding study and the 37° C. VMAT2 uptake studies previously described, analogous solution epimerization experiments were conducted using the corresponding conditions for each individual assay. […] As this dynamic phenomenon occurs, the ratio of lobeline to lobeline epimer in solution naturally changes over time. Further, depending upon the solution conditions, the rate and extent of epimerization may vary; thus, a ratio of lobeline to epimer, if achieved, may occur at various time points. After 2 hours, the 25° C. […] The epimerization of lobeline in the 37° C.
# in vivo = conditions: for AUC(0-inf) / AUC(0-t) / Cmax / MRT last / Tmax / Vd / clearance / half-life: rat, in vivo
# Description: Here, serial doses of lobeline were administered to male and female rats intravenously, subcutaneously or orally, and the pharmacokinetic profiles of the parent lobeline and its epimer were monitored in plasma.
# [2] = Lobeline conversion to epimer in the buffer system used at 37° C. in the VMAT2 uptake study (HPLC); format: physicochemical; conditions: for Lobeline %: VMAT2 uptake buffer, 37° C.
smiles,measurement,setting,value
"CN1[C@@H](CC(=O)c2ccccc2)CCC[C@H]1C[C@H](O)c1ccccc1 [Lobeline, 2-[6S-(2S-hydroxy-2-phenyl-ethyl)-1-methyl-piperidin-2R-yl]-1-phenyl-ethanone]",component content of solution,"[1]; pH 7.4 phosphate buffer control, same temperature as 25° C. binding buffer",64%
same,component content of solution,[1]; phosphate buffer control for the 37° C. VMAT2 uptake buffer,62%
same,AUC(0-inf),"in vivo; female, iv, 2 mg/kg",0.134 µg·h/mL
same,AUC(0-t),"in vivo; female, iv, 2 mg/kg",0.133 µg·h/mL
same,Cmax,"in vivo; female, iv, 2 mg/kg",0.106 µg/mL
same,MRT last,"in vivo; female, iv, 2 mg/kg",1.72 h
same,Tmax,"in vivo; female, iv, 2 mg/kg",0.083 h
same,Vd,"in vivo; female, iv, 2 mg/kg",27.2 L/kg
same,clearance,"in vivo; female, iv, 2 mg/kg",0.0149 L/h/kg
same,half-life,"in vivo; female, iv, 2 mg/kg",1.85 h
same,AUC(0-inf),"in vivo; female, po, 20 mg/kg",0.0645 µg·h/mL
same,AUC(0-t),"in vivo; female, po, 20 mg/kg",0.0627 µg·h/mL
same,Cmax,"in vivo; female, po, 20 mg/kg",0.0425 µg/mL
same,MRT last,"in vivo; female, po, 20 mg/kg",1.92 h
same,Tmax,"in vivo; female, po, 20 mg/kg",0.5 h
same,half-life,"in vivo; female, po, 20 mg/kg",2.29 h
same,AUC(0-inf),"in vivo; female, sc, 3 mg/kg",0.193 µg·h/mL
same,AUC(0-t),"in vivo; female, sc, 3 mg/kg",0.191 µg·h/mL
same,Cmax,"in vivo; female, sc, 3 mg/kg",0.142 µg/mL
same,MRT last,"in vivo; female, sc, 3 mg/kg",1.42 h
same,Tmax,"in vivo; female, sc, 3 mg/kg",0.25 h
same,half-life,"in vivo; female, sc, 3 mg/kg",1.14 h
same,AUC(0-inf),"in vivo; male, iv, 2 mg/kg",0.135 µg·h/mL
same,AUC(0-t),"in vivo; male, iv, 2 mg/kg",0.135 µg·h/mL
same,Cmax,"in vivo; male, iv, 2 mg/kg",0.144 µg/mL
same,MRT last,"in vivo; male, iv, 2 mg/kg",1.54 h
same,Tmax,"in vivo; male, iv, 2 mg/kg",0.083 h
same,Vd,"in vivo; male, iv, 2 mg/kg",23.8 L/kg
same,clearance,"in vivo; male, iv, 2 mg/kg",0.0148 L/h/kg
same,half-life,"in vivo; male, iv, 2 mg/kg",1.68 h
same,AUC(0-inf),"in vivo; male, po, 20 mg/kg",0.105 µg·h/mL
same,AUC(0-t),"in vivo; male, po, 20 mg/kg",0.104 µg·h/mL
same,Cmax,"in vivo; male, po, 20 mg/kg",0.0912 µg/mL
same,MRT last,"in vivo; male, po, 20 mg/kg",1.88 h
same,Tmax,"in vivo; male, po, 20 mg/kg",0.5 h
same,half-life,"in vivo; male, po, 20 mg/kg",1.97 h
same,AUC(0-inf),"in vivo; male, sc, 3 mg/kg",0.191 µg·h/mL
same,AUC(0-t),"in vivo; male, sc, 3 mg/kg",0.19 µg·h/mL
same,Cmax,"in vivo; male, sc, 3 mg/kg",0.162 µg/mL
same,MRT last,"in vivo; male, sc, 3 mg/kg",1.35 h
same,Tmax,"in vivo; male, sc, 3 mg/kg",0.083 h
same,half-life,"in vivo; male, sc, 3 mg/kg",1.18 h
same,ratio of lobeline to epimer in plasma (comparison of AUC; x to 1),"in vivo; rats, depending on sex and route of administration",1.5-2
same,"systemic absorption of lobeline, followed by subsequent epimerization, when given orally","in vivo; rats, females compared to males",significantly reduced in females as compared to males
same,component content of solution,"[2]; 37° C. uptake buffer with ATP-Mg2+ cofactor reduced from 2 mM to 0.4 mM, after 2 hours, with impurity",66%
same,final component concentration (as a function of the area under the curve),"[2]; VMAT2 uptake buffer (HEPES), 2 hour incubation at 37° C.",69%
same,Lobeline %,"[2]; T0, sample age 0:01",98.2%
same,Lobeline %,"[2]; T5, sample age 0:05",96.7%
same,Lobeline %,"[2]; T10, sample age 0:10",94.4%
same,Lobeline %,"[2]; T15, sample age 0:15",91.2%
same,Lobeline %,"[2]; T25, sample age 0:25",86.5%
same,Lobeline %,"[2]; T30, sample age 0:30",84.7%
same,Lobeline %,"[2]; T35, sample age 0:35",83.4%
same,Lobeline %,"[2]; T40, sample age 0:40",81.8%
same,Lobeline %,"[2]; T45, sample age 0:45",80.6%
same,Lobeline %,"[2]; T50, sample age 0:50",79.3%
same,Lobeline %,"[2]; T55, sample age 0:55",78.5%
same,Lobeline %,"[2]; T60, sample age 1:00",77.2%
same,Lobeline %,"[2]; T70, sample age 1:10",75.0%
same,Lobeline %,"[2]; T80, sample age 1:20",73.1%
same,Lobeline %,"[2]; T90, sample age 1:31",72.2%
same,Lobeline %,"[2]; T100, sample age 1:40",71.1%
